According to patent US9487474B2, “Imino compounds as protecting agents against ultraviolet radiations” (Elkimia, Inc., priority 2012, dated 2016):

What was measured:
Assay type in all cases: physicochemical
[1] = UV spectrum (λmax) of the isolated compound
From the text: In other embodiments, the present invention provides methods and techniques for determining the UV-absorbing capacity of the compounds as defined herein. The UV-absorbing properties of the compounds defined herein can be determined by spectrophotometer according to techniques and methods well known in the art. For example, ultraviolet-visible spectroscopy or ultraviolet-visible spectrophotometry (UV-Vis or UV/Vis) may be used to calculate the wavelength of maximal absorption (λmax) of the compound.

[2] = UVA/UVB absorption of compound films on glass slides, with and without 20 hours ageing under UV (Xenon instrument); settings: for Tested compound UVA % / Tested compound UVB %: absorption A = (Tslide−Tslide+sample)/Tslide×100; for Plate + tested compound UVA % / Plate + tested compound UVB %: transmission T (%)
Experimental: Compounds IE1, IF1, IA2, IE4, IA1, IE2, ID2 and ID3 were evaluated for their UV absorption properties. Samples were prepared as follows: 20 mg of each of the compounds were dissolved into 1 ml of methanol to yield 20 g/L solutions. The solutions were then applied onto two glass slides each. For each compound, one of the slides was aged for 20 hours under UV (Xenon instrument). Samples were then analyzed using a UVA-UVB spectrophotometer in transmission T (%) mode and compared to the non-aged slides. Absorption (A) was calculated using the following formula: Asample=(Tslide−Tslide+sample)/Tslide×100

[3] = In vitro UV protection performance (SPF in vitro, UVAPF, Critical Wavelength) by the Colipa UVA in vitro Method on PMMA plates; settings: for Critical Wavelength λc value: PMMA plate, after UV exposure, 90% of the absorbance integral 290 to 400 nm, >= 370 nm = broad-spectrum; for protection against UVA rays (UVAPF in vitro), in words: UVAPF in vitro measurements; for UVAPF: thin film 0.75 mg/cm^2 on PMMA plate, after UV irradiation (pre-irradiation 800 J/m^2-eff); for SPF in vitro: thin film 0.75 mg/cm^2 on roughened PMMA plate, absorbance before UV exposure
Experimental: The following compounds were evaluated by an in vitro study for the Sun Protection Factor (SPF) in vitro, the UVA Protection Factor (UVAPF) and the Critical Wavelength value using the Colipa UVA in vitro Method.
For determining the SPF in vitro value, the protection performance of the compounds against erythemally-effective UV radiation, largely confined to the UVB (290-320 nm) and short-wavelength UVA (320-340) region was calculated from the measured in vitro transmittance. The in vitro UVAPF, the UVA protection (320-400 nm) was calculated from the measured in vitro transmittance after irradiation. The Critical Wavelength Value was defined as the wavelength at which the integral of the spectral absorbance curve reached 90% of the integral over the UV spectrum from 290 to 400 nm. It has been settled that this value must be equal or over 370 nm so as to classify the product as broad-spectrum. The study consisted in a comparative assay of non-treated plates against plates treated with each of the compounds and was based on the evaluation of UV-transmittance through a thin film of sunscreen sample spread on a roughened substrate, before an after exposure to a controlled dose of UV radiation from a UV source. A Kontron 933 spectrophotomer equipped with a UV source, an integrating sphere and a monochromatic light able to deliver a flow of energy between 290 and 400 nm was used. The transmittance values were measured at 1 nm intervals. A 10-4 precision laboratory balance was used to control deposited product weight. The irradiation was provided by Sunset Atlas CPS+ with standard filter. Temperature regulation of the equipment was done in the range of 25-35° C. A pre-irradiation dose of 4 times 200 J/m^2-eff (800 J/m^2-eff) was delivered. The substrate was the material to which the sunscreen product was applied. Polymethylmethacrylate (PMMA) plates were used and were roughened on one side to a three-dimensional surface topography of 5 micrometers. Each compound was weighted and applied evenly to the PMMA plate with a 2-phase spreading to achieve a 0.75 mg/cm^2 weight/surface ratio. Spreading was performed with a light spreading move for approximately 30 seconds followed by spreading with greater pressure for approximately 30 seconds. The resulting sample was left to equilibrate for 15 minutes in the dark at room temperature to ensure a self-leveling if the formula. To account for lack of photostability, a pre-irradiation was necessary. The pre-irradiation dose was 4 minimal erythema dose (MEDs), equivalent to 800 J/m^2-eff. Five measurements of spectral irradiance transmitted for each wavelength through the PMMA plate covered with the sunscreen product were obtained after pre-irradiation of the sunscreen product [P1( ), P2( ), P3( ), P4( ) and P5( )]. For each compound, mean absorbance values were determined from at least three individual PMMA plates. To validate the accuracy of the results, a control product with an established SPF of 18-20, Lot 11T0313 was tested simultaneously with the compounds. SPF in vitro was calculated for each plate using the following equation (Colipa 2011):
[formula] Where: • E( )=Erythema action spectrum (CEI-1987) • I( )=Spectral irradiance of the UV source • A0( )=Mean monochromatic absorbance measurements per plate of the test compound layer before UV exposure, at each wavelength • d=Wavelength step (1 nm) Calculation of the UVAPF for Each Plate after UV Irradiation (Colipa 2011)
[formula] Where: • P( )=PPD action spectrum • I( )=Spectral irradiance of the UV source • A( )=Mean monochromatic absorbance measurements per plate of the test compound layer after UV exposure, at each wavelength • C=Coefficient of adjustment • d=Wavelength step (1 nm) Calculation of the Critical Wavelength (FDA 2011)
[formula] Where: • A( )=Mean monochromatic absorbance measurements per plate of the compound layer after UV exposure, at each wavelength • d=Wavelength step (1 nm) […]

[4] = 20 g/L methanol solution on glass slide, no ageing
[5] = ageing for 20 hours under UV (Xenon instrument)

SMILES	UV: λmax ([1]; MeOH/water with both 0.1% formic acid) [nm]	Tested compound UVA % ([2]; ageing for 20 hours under UV) [%]	Tested compound UVB % ([2]; ageing for 20 hours under UV) [%]	Tested compound UVA % ([2]; no ageing) [%]	Tested compound UVB % ([2]; no ageing) [%]	Plate + tested compound UVA % [2, 4] [%]	Plate + tested compound UVB % [2, 4] [%]	Plate + tested compound UVA % [2, 5] [%]	Plate + tested compound UVB % [2, 5] [%]	Critical Wavelength λc value [3] [nm]	protection against UVA rays (UVAPF in vitro), in words [3]	UVAPF [3]	SPF in vitro [3]	UV: λmax ([1]; MeOH/water) [nm]
COc1ccc(/N=C2/C=C(NCC(=O)O)CCC2)cc1 [(E)-2-((3-((4-methoxyphenyl)imino)cyclohex-1-en-1-yl)amino)acetic acid]	~318	–	–	–	–	–	–	–	–	–	–	–	–	–
COc1ccc(/N=C2/C=C(NCC(=O)O)CC(C)(C)C2)cc1 [ID2]	–	98.9	99.0	99.5	99.2	0.44	0.34	1.00	0.46	–	–	–	–	–
COc1ccc(/N=C2\CC(C)(C)CC3=C2SCC(C(=O)O)N3)cc1 (stereo not shown) [IA1]	–	95.1	98.6	98.9	95.8	0.99	1.88	4.33	0.64	390	good protection against UVA rays	8.7	2.4	–
COc1ccc(/N=C2\CC(C)(C)CC3=C2SCC(C(=O)O)N3)cc1OC (stereo not shown) [IF1]	–	99.6	99.1	99.7	99.3	0.24	0.31	0.37	0.39	390	–	4.1	2.1	–
COc1ccc(/N=C2/C=C(NCC(=O)O)CCC2)cc1 [ID3]	–	98.6	98.6	99.5	99.3	0.47	0.33	1.28	0.62	–	–	–	–	–
CC1(C)CC2=C(SCC(C(=O)O)N2)/C(=N/c2ccc(F)cc2)C1 (stereo not shown) [IE4]	–	98.4	98.2	99.5	99.0	0.49	0.46	1.46	0.81	390	good protection against UVA rays	8.6	4.5	–
CC1(C)CC2=C(SCC(C(=O)O)N2)/C(=N/c2ccccc2)C1 (stereo not shown) [IE2, (E)-6,6-dimethyl-8-(phenylimino)-3,4,5,6,7,8-hexahydro-2H-benzo[b][1,4]thiazine-3-carboxylic acid]	–	95.0	95.6	96.1	95.3	3.51	2.12	4.43	1.97	–	–	–	–	–
CC1(C)CC2=C(SCC(C(=O)O)N2)/C(=N/c2ccc(C(=O)NC(C)(C)C)cc2)C1 (stereo not shown) [IE1]	–	98.2	97.7	98.9	98.4	1.00	0.73	1.63	1.02	391	good protection against UVA rays	13.5	3.4	–
COc1ccc(/N=C2/C=C(Nc3ccc(OC)cc3)CC(C)(C)C2)cc1 [(E)-N,N′-(5,5-dimethylcyclohex-1-ene-1-yl-3-ylidene)bis(4-methoxyaniline)]	–	–	–	–	–	–	–	–	–	–	–	–	–	~345
